Like-named read-outs stand apart in the source and are kept apart here.

In this data set the test system is semen. Nature of the data set: Biocompatibility with semen (non-spermicidal; mobility and viability of the spermatozoa). It counts as cell-based, swine. The source says:
A summary of the tests conducted is given in the table at the end of the description.

On to Tween 85, for which the Bio-compatibility result is “Yes”.
sorbitan monolaurate [Span 20]: the “effect on the mobility and viability of the spermatozoa” value is “lack of any harmful effect”; the “spermicidal role with respect to semen” value is “non-spermicidal”. Besides, where the note is “surfactant concentration 0.5%, matrix Suppocire DM”, the Bio-compatibility result is given as “Yes”. Moreover, the Bio-compatibility entry (surfactant concentration 1%, matrix Gelucire 43/01) was “Yes”. For the setting “surfactant concentration 1%, matrix Suppocire DM”, the Bio-compatibility entry is “Yes”.
